For experiment [1], the system named is IL-1β, TNF-α and IL-6. Briefly: Proinflammatory pain cytokines after DC injury in rats. Type of experiment: in vivo. Conditions: rat DC injury, oral. Here is the method: The efficacy of oral AZD3342 in the DC injury model in adult Sprague-Dawley rat was also assessed. Animals were divided into 6 groups: (1), Sham (control); (2), DC crush injury+Vehicle; (3), DC crush injury+15 mg/kg AZD3342; (4), DC crush injury+75 mg/kg […]; (5), DC crush injury+375 mg/kg AZD3342; and (6), DC crush injury+Melatonin. Animals were dosed twice daily with oral AZD3342 or vehicle with the experimenters masked to the treatment conditions. These experiments were performed with n=6 rats/group and repeated on 2-3 independent occasions (total n=12-18 rats/group/test).
The lesion site+5 mm either side (DC and CC SCI, n=6 mice/rats/group, 2 independent repeats (total n=12 mice/rats/group)) was dissected and rapidly frozen in liquid N2 and stored at −80° C. until required. […] The levels of mRNA of MMP-9, MMP-12, IL-1β, TNF-α and IL-6 were determined using pre-validated mouse primer sequences from complimentary DNA prepared from extracted mRNA and qRT-PCR was performed using a LightCycler PCR machine (Roche, Burgess Hill, UK) (M. L. Read, S. Mir, R. Spice, R. J. Seabright, E. L. Suggate, Z. Ahmed, M. Berry, A. Logan, Profiling RNA interference (RNAi)-mediated toxicity in neural cultures for effective short interfering RNA design. J Gene Med 11, 523-534 (2009)). […]

The test system of experiment [2] is mice with DC crush injury. The experiment is described as follows: CSF biomarkers of SCI (S100β, NSE, GFAP, pNF-H, NF-L). Type of experiment: in vivo, mouse. Conditions: 3 d after injury.
Experiment [3] relates to rats with DC crush injury. Briefly: Spinal cord water content after DC injury in rats. Type of experiment: in vivo. As to conditions: rat DC injury, oral, 3 days. The protocol:
DC crush injury was administered bilaterally at the T8 vertebral level as described previously (S. Surey, M. Berry, A. Logan, R. Bicknell, Z. Ahmed, Differential cavitation, angiogenesis and wound-healing responses in injured mouse and rat spinal cords. Neuroscience 275, 62-80 (2014); M. L. Read, S. Mir, R. Spice, R. J. Seabright, E. L. Suggate, Z. Ahmed, M. Berry, A. Logan, Profiling RNA interference (RNAi)-mediated toxicity in neural cultures for effective short interfering RNA design. J Gene Med 11, 523-534 (2009)). […]
The efficacy of oral AZD3342 in the DC injury model in adult Sprague-Dawley rat was also assessed. […]
The lesion site+3 mm either side for mice and the lesion site+5 mm either side for the rat DC model were dissected out and the water content of the spinal cord (as a measure of oedema) was determined at 3 days after DC and CC SCI, as described previously (S. Li, C. H. Tator, Effects of MK801 on evoked potentials, spinal cord blood flow and cord edema in acute spinal cord injury in rats. Spinal Cord 37, 820-832 (1999)). […] The percent water content was calculated as: water content (%)=[(wet weight-dry weight)/wet weight]×100%.

In experiment [4] the test system is mice with DC crush injury. The experiment is described as follows: Spinal cord water content (oedema) after DC crush injury in mice. Type of experiment: in vivo, mouse. As to conditions: 3 days after DC injury; doses and routes of Table 1; vs DC+vehicle. The protocol: For oral delivery of AZD1236, n=6 adult male C57BL6 mice/group (Charles River, Margate, UK) were randomly allocated to either: (1), Sham (control; partial laminectomy but no DC crush injury); (2), DC crush injury+vehicle (partial laminectomy followed by DC crush injury and injection of vehicle); (3), DC crush injury+100 mg/kg AZD1236; (4), DC crush injury+200 mg/kg AZD1236; and (5), DC crush injury+300 mg/kg AZD1236. For intrathecal (it) delivery of AZD1236, adult male C57BL6 mice (25-30 g) (Charles River, Margate, UK) were randomly allocated to either: (1), Sham (control; partial laminectomy but no DC crush injury); (2), DC crush injury+vehicle (partial laminectomy followed by DC crush injury and injection of vehicle); (3), DC crush injury+2.5 mg/kg AZD1236; (4), DC crush injury+5 mg/kg AZD1236; and (5), DC crush injury+10 mg/kg AZD1236. For intrathecal delivery an indwelling atlanto-occipital intrathecal catheter was inserted into the intrathecal space, as described previously (F. A. Oladosu, B. P. Ciszek, S. C. O'Buckley, A. G. Nackley, Novel intrathecal and subcutaneous catheter delivery systems in the mouse. J Neurosci Methods 264, 119-128 (2016)). Briefly, with mice in the sternal recumbency a small incision was made at the nape of the neck followed by detachment of the muscles on either side of the external occipital crest to expose the A-O membrane. The membrane was incised and a 6 cm Alzet mouse intrathecal catheter (Alzet, Cupertino, Calif., USA) and polyurethane segments were gently guided 2.5 cm into the intrathecal space. The catheter was secured using 4-0 silk sutures (Oasis Medical, IL) and the exposed end of the catheter was sealed off with a stainless-steel plug and affixed to the upper back. Animals were injected immediately with vehicle or AZD1236 followed by a 10 μl PBS catheter flush. Injections were repeated every twice daily for the first 3 days after injury and drugs and vehicle reagents were delivered over 1 min time period using a Hamilton microlitre syringe (Hamilton Co, USA). Where specified intact animals with no surgical procedures were also used. All lesions were administered under 5% isofluorane induced inhalation anaesthesia, with 1.51/min O2. Pre- and post-injury analgesia was also provided.
DC crush injury was administered bilaterally at the T8 vertebral level as described previously (S. Surey, M. Berry, A. Logan, R. Bicknell, Z. Ahmed, Differential cavitation, angiogenesis and wound-healing responses in injured mouse and rat spinal cords. Neuroscience 275, 62-80 (2014); M. L. Read, S. Mir, R. Spice, R. J. Seabright, E. L. Suggate, Z. Ahmed, M. Berry, A. Logan, Profiling RNA interference (RNAi)-mediated toxicity in neural cultures for effective short interfering RNA design. J Gene Med 11, 523-534 (2009)). Briefly, calibrated watchmaker's forceps were separated by 0.5 mm and inserted through the dorsal cord meninges to a depth of 0.45 mm in mice and separated by 1 mm and inserted through the dorsal cord meninges to a depth of 1.0 mm in rats, and the DC were crushed for 3 seconds. AZD1236 or vehicle was administered twice daily by oral gavage or intrathecally, either immediately for the first 3 days or 24 hours after injury and treating twice daily until day 4 (i.e. 3 days of AZD1236 dosing). All experiments were performed with n=6 mice/group and repeated on at least 2-3 independent occasions (total=12-18 animals/group/test).
The lesion site+3 mm either side for mice and the lesion site+5 mm either side for the rat DC model were dissected out and the water content of the spinal cord (as a measure of oedema) was determined at 3 days after DC and CC SCI, as described previously (S. Li, C. H. Tator, Effects of MK801 on evoked potentials, spinal cord blood flow and cord edema in acute spinal cord injury in rats. Spinal Cord 37, 820-832 (1999)). Spinal cords containing the lesion site were weighed on aluminium foil, dried at 105° C. for 24 hr, and re-weighed. […]

Experiment [5] concerns IL-1β, TNF-α and IL-6. Briefly: Proinflammatory pain markers after CC SCI in mice. Type of experiment: in vivo, mouse. Conditions: oral gavage immediately after injury. Here is the method: CC SCI was administered at the T7-T8 vertebral level after exposure of T6-T9 by laminectomy. The aneurysm clip applicator was oriented in a bilateral direction and an aneurysm clip with a closing force of 24 g was applied extradurally for 60 s, as described previously (A. S. Rivlin, C. H. Tator, Effect of duration of acute spinal cord compression in a new acute cord injury model in the rat. Surg Neurol 10, 38-43 (1978):E. Esposito, I. Paterniti, E. Mazzon, T. Genovese, M. Galuppo, R. Meli, P. Bramanti, S. Cuzzocrea, MK801 attenuates secondary injury in a mouse experimental compression model of spinal cord trauma. BMC Neurosci 12, 31 (2011)).
The urinary bladders were manually emptied twice daily until bladder function was regained. Adult male C57BL6 mice (25-30 g) (Charles River, Margate, UK) were randomly allocated to either: (1), Sham (control; laminectomy but no CC SCI); (2), CC SCI+vehicle; (3), CC SCI+200 mg/kg AZD1236 (oral); (4), CC SCI+5 mg/kg AZD1236 (it). All experiments were performed with n=6 mice/group and repeated on 3 independent occasions (total=18 mice/group/test).
The lesion site+5 mm either side (DC and CC SCI, n=6 mice/rats/group, 2 independent repeats (total n=12 mice/rats/group)) was dissected and rapidly frozen in liquid N2 and stored at −80° C. until required. […] The levels of mRNA of MMP-9, MMP-12, IL-1β, TNF-α and IL-6 were determined using pre-validated mouse primer sequences from complimentary DNA prepared from extracted mRNA and qRT-PCR was performed using a LightCycler PCR machine (Roche, Burgess Hill, UK) (M. L. Read, S. Mir, R. Spice, R. J. Seabright, E. L. Suggate, Z. Ahmed, M. Berry, A. Logan, Profiling RNA interference (RNAi)-mediated toxicity in neural cultures for effective short interfering RNA design. J Gene Med 11, 523-534 (2009)). […] Fold changes were computed using the ΔΔCt method (M. L. Read, S. Mir, R. Spice, R. J. Seabright, E. L. Suggate, Z. Ahmed, M. Berry, A. Logan, Profiling RNA interference (RNAi)-mediated toxicity in neural cultures for effective short interfering RNA design. J Gene Med 11, 523-534 (2009).

Experiment [6] has as its system J774A.1, RAW 264.7 and primary mouse peritoneal macrophages. Briefly: Transwell migration assay of macrophages. Type of experiment: cell-based. Conditions: J774A.1 and RAW 264.7, 3 h. Here is the method: J774A.1 cells (#TIB-67; ATCC, Middlesex, UK) were cultured in DMEM supplemented with 10% FBS, 100 U/ml penicillin, 100 μg/ml streptomycin, and 0.25 μg amphotericin B. Cells were seeded in T75 tissue-culture flasks and maintained at 37° C. and 5% CO2. RAW 264.7 cells (#TIB-71; ATCC) were maintained in DMEM containing 10% FBS.
Resident peritoneal cells were harvested from adult C57BL/6 mice (6-8 weeks old) by injection of 10 ml of PBS using a 21G needle into the peritoneal cavity and harvesting the cell suspension, as described previously (Rosas M, Davies L C, Giles P J, Liao C T, Kharfan B, Stone T C, et aL. The transcription factor Gata6 links tissue macrophage phenotype and proliferative renewal. Science 2014; 344(6184): 645-8). Peritoneal cells were then centrifuged at 100×g for 10 min and the cell pellet resuspended in DMEM/F12 medium. Cell were incubated at 37° C., for 2 h and non-adherent cells were removed by gentle washing. Cells were expanded in DMEM/F12 medium containing 10% FBS. For migration assays, cells were grown in RPMI containing 0.02% BSA for 24 h to obtain quiescent cells prior to using them in Transwell migration assays as described below.
Migration assays were performed with J774A.1, RAW 264.7 and primary mouse peritoneal macrophages in 6.5 mm Transwell plates (ThermoFisher) with 8 μm pore inserts, as described previously (Green et al., 2012). Briefly, inserts were coated with rat tail type I collagen and 1×10^5 cells (J774A.1, RAW 264.7 or primary mouse macrophages) were resuspended in chemotaxis buffer (RMPI 1640 plus 0.02% BSA, (termed RPMI from herein)) and added to the upper chamber and incubated with migration medium, with or without known chemotactic factors MCP-1 (100 ng/ml) and PMA (100 nM), or AZD1236, GM6001, SD2590 and MMP-9 Inhibitor I (all used at 1, 10, 100, 1000 ng/ml) added to the lower chamber. Cells were allowed to migrate through the insert membrane for 3 h at 37° C., before washing inserts with PBS. Non-migrating cells remaining on the upper surface were removed with a cotton swab whilst the migrated cells on the insert were fixed, stained with Diff-Quick (#26096, Electron Microscopy Science, Hatfield, UK), and mounted on glass slides. Migration was measured visually by counting using a light microscope at 40× magnification. The mean number of cells in 10 random fields were calculated for each treatment by an experimenter masked to the treatment conditions. A migration index was calculated by dividing the number of cells that migrated in response to the chemokine by the number of cells that migrated randomly (RPMI medium) with a reference index>1, indicating chemotaxis.

Experiment [7] deals with mice with DC crush injury. Briefly: Spinal cord water content (oedema) after DC crush injury in mice. Type of experiment: in vivo, mouse. Conditions: IP, twice daily.

For `COc1ccc2[nH]cc(CCNC(C)=O)c2c1` [melatonin, reference compound], the “expression of proinflammatory pain cytokines” value in the experiment with IL-1β, TNF-α and IL-6 [1] is reported as “small effect”. Besides, the “levels of S100β, NSE, GFAP, pNF-H and NF-L in CSF” value in experiment [2] is listed as “marginally reduced”. Further, the “SCI-induced edema (spinal cord water content)” value in experiment [3] is on record as “marginal effect”. The “spinal cord water content, comparison of MMP inhibitors (FIG. 4)” value in experiment [4] is given as “significantly reduced spinal cord water content”.

In the case of `CC(C)C[C@H](CN)CC(=O)O` [pregabalin], the “proinflammatory pain markers after CC injury, comparison with pain medications (FIG. 7)” value with IL-1β, TNF-α and IL-6 [5] is on record as “much less effective”.

Turning to `COc1ccc(Cl)cc1C(=O)NCCc1ccc(S(=O)(=O)NC(=O)NC2CCCCC2)cc1` [Glibenclamide, reference compound], in experiment [4], the “spinal cord water content, comparison of MMP inhibitors (FIG. 4)” value is listed as “significantly reduced spinal cord water content”.

As for `CCCCCCCCCCCCCC(=O)O[C@@H]1[C@@H](C)[C@@]2(O)[C@@H](C=C(CO)C[C@]3(O)C(=O)C(C)=C[C@@H]23)[C@@H]2C(C)(C)[C@]12OC(C)=O` [PMA], the “macrophage migration (migration index, chemotaxis)” value in experiment [6] is listed as “stimulated significant chemotaxis”.

Consider “MCP-1: known chemotactic factor, positive control in migration assay”, for which, in experiment [6], the “macrophage migration (migration index, chemotaxis)” value is given as “stimulated significant chemotaxis”.

Turning to `COC(=O)Nc1ccc2oc3cc(S(=O)(=O)N[C@@H](C(=O)O)C(C)C)ccc3c2c1` [MMP408], the “SCI-induced oedema with tool inhibitors singly or in combination (FIG. 3D)” value in experiment [7] is given as “suboptimal therapeutic benefits”.

With `NCC1(CC(=O)O)CCCCC1` [gabapentin], in the experiment on IL-1β, TNF-α and IL-6 [5], the “proinflammatory pain markers after CC injury, comparison with pain medications (FIG. 7)” value was “much less effective”.

Take `Nc1nc2ccc(OC(F)(F)F)cc2s1` [Riluzole, reference compound]: in experiment [4], the “spinal cord water content, comparison of MMP inhibitors (FIG. 4)” value was “significantly reduced spinal cord water content”.

These data come from patent US20230255943A1, “MMP-9 AND MMP-12 INHIBITION FOR TREATING SPINAL CORD INJURY OR RELATED INJURY TO NEUROLOGICAL TISSUE” (The University of Birmingham, priority 2020, published 2023).
